ChEMBL document CHEMBL1123015, “Thiol-containing androgens as suicide substrates of aromatase” (J Med Chem, 1985)

Molecular target: T1, Aromatase (Homo sapiens, UniProt P11511)
T1 sequence (P11511 whole entry): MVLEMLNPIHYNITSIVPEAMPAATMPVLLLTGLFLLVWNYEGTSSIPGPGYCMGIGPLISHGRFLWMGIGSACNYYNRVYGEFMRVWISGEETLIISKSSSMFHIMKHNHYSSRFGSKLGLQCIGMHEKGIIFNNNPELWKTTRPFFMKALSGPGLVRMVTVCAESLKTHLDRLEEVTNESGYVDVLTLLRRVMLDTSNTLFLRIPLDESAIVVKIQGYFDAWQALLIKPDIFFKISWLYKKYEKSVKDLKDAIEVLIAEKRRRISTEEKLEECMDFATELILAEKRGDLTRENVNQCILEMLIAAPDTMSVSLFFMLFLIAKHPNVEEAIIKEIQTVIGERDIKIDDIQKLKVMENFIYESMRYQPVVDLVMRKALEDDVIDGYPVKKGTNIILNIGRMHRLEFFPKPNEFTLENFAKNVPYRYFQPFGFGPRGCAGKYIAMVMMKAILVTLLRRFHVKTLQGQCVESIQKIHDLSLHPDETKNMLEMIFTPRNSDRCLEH
Experiment: Percentage aromatase activity remaining in human placental microsomes with NADPH
Type: functional, Placenta

`C[C@]12CC[C@H]3[C@@H](CCC4=CC(=O)CC[C@@]43CS)[C@@H]1CCC2=O` showed an Activity of 94%.
